From PMC7918823, “Novel Potent and Selective DPP-4 Inhibitors: Design, Synthesis and Molecular Docking Study of Dihydropyrimidine Phthalimide Hybrids” (Pharmaceuticals, 2021)

How the values were obtained:
[1] = system: HFD-induced type 2 diabetic rats; assay: Oral glucose tolerance test after chronic treatment in HFD-induced type 2 diabetic rats; format: in vivo, SD rats; settings: for Glucose tolerance (AUC of OGTT versus non-treated diabetic group): 10 mg/kg/day oral, in absence of MET; for Reduction of AUC of OGTT by MET addition: hybrid 10 mg/kg/day oral plus MET 150 mg/kg/day
Excerpt: After acclimatization period, rats were randomly divided into 25 groups, each of seven rats. The first group was normal control group which maintained on normal rat chow for the entire experiment period (16 weeks). The second group served as diabetic control group in which T2DM was induced by HFD that consisted of casein (30%), raw beef fat (Suet, 40%), wheat flour (7%), glucose (10%), salt mixture (6%), vitamin mixture (3%), and bran (4%), for 16 weeks. […] At the end of treatment regimen that lasted for four weeks; using our synthesized hybrids 10a–j with and without MET, rats were fasted overnight (12 h) with free access to water. Oral glucose tolerance test (OGTT) was performed as previously described. […] Roche Diagnostics, Rotkreuz, Switzerland).

DPP-9 = DPP-9 (Homo sapiens, UniProt Q86TI2); assay: In vitro DPP-9 inhibition assay; format: biochemical; settings: assay buffer pH 8
Description: (§1) DPP-4 inhibition was assessed, as previously described, based on a continuous fluorometric assay method in which the substrate Gly-Pro-AMC (Gly-Pro-7-amido-4-methylcoumarin hydrobromide) was split by DPP-4 to release fluorescent aminomethyl coumarin (AMC). The liberated AMC was continuously monitored using an excitation wavelength of 360 nm and an emission wavelength of 460 nm using an EnVision microplate reader (PerkinElmer, Waltham, MA, USA). The reaction mixture consisted of different concentrations of the synthesized hybrids 10a–j, 20 µU/µL of recombinant human DPP-4 (Sigma Aldrich, St. Louis, MO, USA), 10 µM Gly-Pro-AMC (Sigma Aldrich, St. Louis, MO, USA) and assay buffer (150 mM NaCl, 25 mM 4-(2-hydroxyethyl)-1-piperazineethanesulfonic acid (HEPES), 0.12 mg/ml bovine serum albumin (BSA)) and pH of 7.5. The assay was carried out in quadruplicate. IC50 was calculated using GraphPad Prism 8 software (San Diego, CA, USA). Similar to the DPP-4 assay, DPP-8 and DPP-9 inhibition assay was performed and the pH of the assay buffer was 8.

[2] = Antioxidant activity (DPPH method); settings: 100 µM compound, 100 µM DPPH, 20 min, mean ± SE of four replicates
Description: DPPH (1,1-diphenyl-2-picrylhydrazyl) free radical is stable at rt and has a purple colour with a maximum absorption at 517 nm. This free radical is reduced by antioxidant molecules into 1,1-diphenyl-2-picrylhydrazine with resultant discolouration of free radical; this discolouration is stoichiometric with regard to the captured electrons. Accordingly, the fluctuation in the absorbance is an indicator for the antioxidant activity. Our synthesized hybrids 10a–j (100 µM) were mixed with DPPH (100 µM) and left for 20 min at rt, the absorbance was measured at 517 nm.

DPP-8 = DPP-8 (Homo sapiens, UniProt Q6V1X1); assay: In vitro DPP-8 inhibition assay; format: biochemical; settings: assay buffer pH 8
Description: as §1

recombinant human DPP-4 = target: T1, recombinant human DPP-4 (Homo sapiens, UniProt P27487); assay: In vitro DPP-4 inhibition assay (continuous fluorometric, Gly-Pro-AMC); format: biochemical; settings: for IC50: recombinant human DPP-4, mean ± SE of four replicates; for Fold DPP-4 inhibitory activity relative to alogliptin: from IC50 values, versus alogliptin
T1 construct: purchased Sigma Aldrich
Description: as §1

[3] = Cytotoxicity test (MTT assay); format: cell-based; settings: human, normal hepatic LO2 cells, read-out: cell viability
Description: We assessed any possible cytotoxic effect of our synthesized hybrids 10a–j on hepatic LO2 cells using MTT assay. The cells, in DMEM (Gibco, Invitrogen), were seeded in 96 well plates at density of 1 × 10^4/well. The synthesized compounds were added to the cells and incubated for 48 h at 37 °C and 5% CO2. Then, MTT reagent was added and the cells were re-incubated for further 4 h. After discarding the supernatants, the formed formazan crystals were dissolved in DMSO. The intensity of color was assessed using microplate reader (Bio-Rad Laboratories, Hercules, CA, USA) at 490 nm wavelength.

blood DPP-4 activity = target: T2, blood DPP-4 activity (Rattus norvegicus, UniProt P14740); assay: In vivo DPP-4 inhibition assay (blood DPP-4 activity); settings: SD rats, single oral dose 10 mg/kg
T2 construct: from tissue; host or cells: plasma of male SD rats
Description: The assay was performed using male SD rats (n = 3 per group), as previously described. The synthesized hybrids 10a–j were suspended in […] cellulose (CMC) and administrated orally at a single dose of 10 mg/kg.
Blood samples were collected at time points 0, 6, 12, 24, 36 and 48 h. Plasma samples were extracted and kept at −20 °C until analysis time. Similar to the in vitro DPP-4 assay principle, plasma samples were mixed with equal volumes of Gly-Pro-AMC in assay buffer (100 mM HEPES, 0.1 mg/ml BSA) and pH of 7.5. The liberated AMC was continuously monitored using an excitation wavelength of 360 nm and an emission wavelength of 460 nm using EnVision microplate reader (PerkinElmer, Waltham, MA, USA). The data were expressed as% blood DPP-4 activity.

[4] = combined with MET 150 mg/kg/day oral, four weeks (hybrid 10 mg/kg/day, alogliptin 20 mg/kg/day)

T1 sequence (P27487 whole entry): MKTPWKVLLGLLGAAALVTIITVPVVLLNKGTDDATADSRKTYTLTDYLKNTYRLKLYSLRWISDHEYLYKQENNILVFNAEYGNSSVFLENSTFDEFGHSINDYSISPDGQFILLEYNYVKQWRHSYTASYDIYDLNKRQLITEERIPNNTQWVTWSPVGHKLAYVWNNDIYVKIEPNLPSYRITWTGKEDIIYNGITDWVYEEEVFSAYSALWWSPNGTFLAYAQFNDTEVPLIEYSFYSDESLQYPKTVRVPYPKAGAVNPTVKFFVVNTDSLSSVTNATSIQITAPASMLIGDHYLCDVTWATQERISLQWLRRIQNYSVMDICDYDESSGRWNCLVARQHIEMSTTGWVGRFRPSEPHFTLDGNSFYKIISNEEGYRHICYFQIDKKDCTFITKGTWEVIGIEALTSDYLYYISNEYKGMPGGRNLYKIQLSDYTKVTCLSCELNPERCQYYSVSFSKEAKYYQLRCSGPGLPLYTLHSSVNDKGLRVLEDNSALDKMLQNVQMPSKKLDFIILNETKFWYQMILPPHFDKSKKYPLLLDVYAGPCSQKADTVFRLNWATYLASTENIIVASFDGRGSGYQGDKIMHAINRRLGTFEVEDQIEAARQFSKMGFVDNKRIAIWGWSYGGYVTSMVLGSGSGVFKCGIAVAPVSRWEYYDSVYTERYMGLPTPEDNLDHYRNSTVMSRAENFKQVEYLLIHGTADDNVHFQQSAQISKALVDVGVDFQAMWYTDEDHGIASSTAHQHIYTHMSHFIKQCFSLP
T2 sequence (P14740 37-767 limits assumed): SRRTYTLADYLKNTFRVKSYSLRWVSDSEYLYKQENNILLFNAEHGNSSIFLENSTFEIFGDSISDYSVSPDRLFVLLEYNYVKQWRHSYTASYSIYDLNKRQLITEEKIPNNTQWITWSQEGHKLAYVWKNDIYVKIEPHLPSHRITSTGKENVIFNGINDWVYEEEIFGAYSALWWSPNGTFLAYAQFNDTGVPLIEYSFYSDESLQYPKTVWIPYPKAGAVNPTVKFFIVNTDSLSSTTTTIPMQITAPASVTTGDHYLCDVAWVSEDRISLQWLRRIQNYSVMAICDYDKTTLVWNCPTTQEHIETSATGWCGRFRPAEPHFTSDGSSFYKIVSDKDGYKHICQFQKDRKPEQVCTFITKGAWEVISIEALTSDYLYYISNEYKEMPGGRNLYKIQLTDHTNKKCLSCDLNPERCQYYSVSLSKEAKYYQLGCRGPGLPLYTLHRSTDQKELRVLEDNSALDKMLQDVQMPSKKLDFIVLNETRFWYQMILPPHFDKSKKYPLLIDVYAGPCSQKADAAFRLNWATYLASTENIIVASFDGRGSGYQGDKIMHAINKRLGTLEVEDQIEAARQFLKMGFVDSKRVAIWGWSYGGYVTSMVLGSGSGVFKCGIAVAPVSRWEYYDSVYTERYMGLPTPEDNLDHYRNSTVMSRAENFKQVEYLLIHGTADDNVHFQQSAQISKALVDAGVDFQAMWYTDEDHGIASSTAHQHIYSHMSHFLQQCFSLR
Sequence of DPP-8 (Q6V1X1 whole entry): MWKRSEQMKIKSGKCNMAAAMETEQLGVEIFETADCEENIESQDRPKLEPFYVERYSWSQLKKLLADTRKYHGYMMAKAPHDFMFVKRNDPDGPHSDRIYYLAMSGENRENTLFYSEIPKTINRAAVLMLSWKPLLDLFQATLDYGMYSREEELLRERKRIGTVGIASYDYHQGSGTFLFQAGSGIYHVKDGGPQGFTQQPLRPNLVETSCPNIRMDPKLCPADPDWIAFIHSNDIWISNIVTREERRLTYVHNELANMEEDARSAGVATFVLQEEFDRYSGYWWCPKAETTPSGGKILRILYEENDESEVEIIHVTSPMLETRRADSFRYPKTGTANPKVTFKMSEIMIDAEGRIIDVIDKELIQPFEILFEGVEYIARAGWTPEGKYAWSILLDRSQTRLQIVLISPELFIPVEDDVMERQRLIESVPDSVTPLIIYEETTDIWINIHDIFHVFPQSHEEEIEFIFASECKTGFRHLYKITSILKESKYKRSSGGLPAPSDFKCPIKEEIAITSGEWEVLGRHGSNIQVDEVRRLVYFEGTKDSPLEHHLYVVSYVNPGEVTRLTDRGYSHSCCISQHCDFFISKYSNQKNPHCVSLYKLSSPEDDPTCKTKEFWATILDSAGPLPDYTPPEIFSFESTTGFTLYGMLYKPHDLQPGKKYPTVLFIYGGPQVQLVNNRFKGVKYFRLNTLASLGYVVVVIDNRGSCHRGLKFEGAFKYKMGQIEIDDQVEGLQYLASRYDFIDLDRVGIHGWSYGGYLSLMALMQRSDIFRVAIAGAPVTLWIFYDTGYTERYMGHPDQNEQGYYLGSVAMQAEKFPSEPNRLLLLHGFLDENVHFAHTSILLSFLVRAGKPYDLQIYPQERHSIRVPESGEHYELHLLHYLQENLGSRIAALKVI
Sequence of DPP-9 (Q86TI2 whole entry): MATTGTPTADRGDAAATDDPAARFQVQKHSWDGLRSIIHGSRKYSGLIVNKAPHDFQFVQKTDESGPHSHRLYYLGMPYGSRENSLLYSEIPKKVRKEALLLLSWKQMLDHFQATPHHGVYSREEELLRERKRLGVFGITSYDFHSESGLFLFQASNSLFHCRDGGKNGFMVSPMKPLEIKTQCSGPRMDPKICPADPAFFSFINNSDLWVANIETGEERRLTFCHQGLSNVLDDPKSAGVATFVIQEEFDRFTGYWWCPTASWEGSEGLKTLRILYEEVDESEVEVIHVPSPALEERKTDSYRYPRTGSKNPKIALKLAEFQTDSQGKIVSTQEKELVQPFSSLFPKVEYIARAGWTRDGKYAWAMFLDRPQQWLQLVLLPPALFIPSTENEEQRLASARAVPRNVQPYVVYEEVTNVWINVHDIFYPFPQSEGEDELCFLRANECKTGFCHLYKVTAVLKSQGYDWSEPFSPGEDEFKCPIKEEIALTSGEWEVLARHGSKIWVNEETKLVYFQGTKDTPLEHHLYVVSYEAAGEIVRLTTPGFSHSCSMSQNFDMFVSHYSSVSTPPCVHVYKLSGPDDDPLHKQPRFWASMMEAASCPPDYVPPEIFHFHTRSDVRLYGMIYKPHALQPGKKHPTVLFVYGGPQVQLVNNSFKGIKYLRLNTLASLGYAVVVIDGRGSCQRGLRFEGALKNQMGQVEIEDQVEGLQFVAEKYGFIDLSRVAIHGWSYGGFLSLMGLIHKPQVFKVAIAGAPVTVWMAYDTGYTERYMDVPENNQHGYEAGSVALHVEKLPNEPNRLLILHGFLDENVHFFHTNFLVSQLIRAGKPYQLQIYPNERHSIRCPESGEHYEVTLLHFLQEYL

Compound	AUC of OGTT [1, 4] [mg·min/dL]	AUC of OGTT ([1]; without MET, alogliptin 20 mg/kg/day oral, four weeks) [mg·min/dL]	IC50 (DPP-9) [µM]	% DPPH Scavenging [2] [%]	IC50 (DPP-8) [µM]	IC50 (recombinant human DPP-4) [µM]	Fold DPP-4 inhibitory activity relative to alogliptin (recombinant human DPP-4) [fold]	viability at 48 h, 30 µM ([3]; 30 µM) [%]	viability at 48 h, 50 µM [3] [%]	Glucose tolerance (AUC of OGTT versus non-treated diabetic group) ([1]; four weeks)	Reduction of AUC of OGTT by MET addition ([1]; four weeks) [%]	DPP-4 blood activity (blood DPP-4 activity; 12 h) [%]	DPP-4 blood activity (blood DPP-4 activity; 24 h) [%]	DPP-4 blood activity (blood DPP-4 activity; 48 h) [%]	viability at 48 h, 10 µM ([3]; 10 µM) [%]
Cn1c(=O)cc(N2CCC[C@@H](N)C2)n(Cc2ccccc2C#N)c1=O [Alogliptin, reference compound]	15451 ± 110	20835 ± 146													
O=C(SC1=NC(c2ccccc2)=CC(c2ccccc2)N1)c1ccccc1CN1C(=O)c2ccccc2C1=O (stereo not drawn) [Compound 10a, S-(4,6-Diphenyl-1,6-dihydropyrimidin-2-yl)2-((1,3-dioxoisoindolin-2-yl)methyl)benzothioate]			> 100	73.85 ± 2.46	> 100	0.0197 ± 0.00127									
COc1ccc(C2C=C(c3ccc(Cl)cc3)N=C(SC(=O)c3ccccc3CN3C(=O)c4ccccc4C3=O)N2)cc1 (stereo not drawn) [Compound 10b, S-(4-(4-Chlorophenyl)-6-(4-methoxyphenyl)-1,6-dihydropyrimidin-2-yl)2-((1,3-dioxoisoindolin-2-yl)methyl)benzothioate]			> 100	74.28 ± 1.69	> 100	0.00378 ± 0.00023	1.5								
O=C(SC1=NC(c2ccc(Cl)cc2)=CC(c2ccc(Cl)cc2)N1)c1ccccc1CN1C(=O)c2ccccc2C1=O (stereo not drawn) [Compound 10c, S-(4,6-Bis(4-chlorophenyl)-1,6-dihydropyrimidin-2-yl)2-((1,3-dioxoisoindolin-2-yl)methyl)benzothioate]			> 100	52.39 ± 0.93	> 100	0.0147 ± 0.00082		72.6	72.5						
Cc1ccc(C2=CC(c3ccc(Cl)cc3)NC(SC(=O)c3ccccc3CN3C(=O)c4ccccc4C3=O)=N2)cc1 (stereo not drawn) [Compound 10d, S-(6-(4-Chlorophenyl)-4-(p-tolyl)-1,6-dihydropyrimidin-2-yl)2-((1,3-dioxoisoindolin-2-yl)methyl)benzothioate]			> 100	80.16 ± 1.38	> 100	0.00219 ± 0.00014	2.6								
CN(C)c1ccc(C2C=C(c3ccc(Br)cc3)N=C(SC(=O)c3ccccc3CN3C(=O)c4ccccc4C3=O)N2)cc1 (stereo not drawn) [Compound 10e, S-(4-(4-Bromophenyl)-6-(4-(dimethylamino)phenyl)-1,6-dihydropyrimidin-2-yl) 2-((1,3-dioxoisoindolin-2-yl)methyl)benzothioate]			> 100	87.21 ± 2.58	> 100	0.00142 ± 0.00011	4			significantly improved glucose tolerance above alogliptin	22.82				
O=C(SC1=NC(c2ccc(Cl)cc2)=CC(c2ccccc2)N1)c1ccccc1CN1C(=O)c2ccccc2C1=O (stereo not drawn) [Compound 10f, S-(4-(4-Chlorophenyl)-6-phenyl-1,6-dihydropyrimidin-2-yl)2-((1,3-dioxoisoindolin-2-yl)methyl)benzothioate]			> 100	57.63 ± 2.14	> 100	0.0315 ± 0.00241									
Nc1ccc(C2=CC(c3ccc(Cl)cc3)NC(SC(=O)c3ccccc3CN3C(=O)c4ccccc4C3=O)=N2)cc1 (stereo not drawn) [Compound 10h, S-(4-(4-Aminophenyl)-6-(4-chlorophenyl)-1,6-dihydropyrimidin-2-yl)2-((1,3-dioxoisoindolin-2-yl)methyl)benzothioate]			> 100	85.74 ± 2.76	> 100	0.0104 ± 0.00054			77.5						
O=C(SC1=NC(c2ccc(Cl)cc2)=CC(c2ccco2)N1)c1ccccc1CN1C(=O)c2ccccc2C1=O (stereo not drawn) [Compound 10i, S-(4-(4-Chlorophenyl)-6-(furan-2-yl)-1,6-dihydropyrimidin-2-yl)2-((1,3-dioxoisoindolin-2-yl)methyl)benzothioate]			> 100	69.11 ± 1.44	> 100	0.00066 ± 4e-05	8.6			significantly improved glucose tolerance above alogliptin	21.7	18.8	49.9	76	74.6
Nc1ccc(C2=CC(c3cccc4ccccc34)NC(SC(=O)c3ccccc3CN3C(=O)c4ccccc4C3=O)=N2)cc1 (stereo not drawn) [Compound 10j, S-(4-(4-Aminophenyl)-6-(naphthalen-1-yl)-1,6-dihydropyrimidin-2-yl)2-((1,3-dioxoisoindolin-2-yl)methyl)benzothioate]			> 100	93.52 ± 1.65	> 100	0.00735 ± 0.00036									
S-(4-(4-Chlorophenyl)-6-(4-nitrophenyl)-1,6-dihydropyrimidin-2-yl)2-((1,3-dioxoisoindolin-2-yl)methyl)benzothioate [Compound 10g]	13787 ± 201		> 100	49.47 ± 1.08	> 100	0.00051 ± 3e-05	11.2			significantly improved glucose tolerance above alogliptin	22.93	18.45	47	73.3	
